Test results as given in ChEMBL document CHEMBL1126813, “Phenyl-substituted prostaglandins: potent and selective antiglaucoma agents” (J Med Chem, 1993).
Each block holds one molecule with its values, some of them ahead of it.

Experiments:
Felis catus [1] = assay: Maximum irritation of cat eyes after topical administration of 5 ug of the compound; format: functional
Monkey = assay: Maximum reduction of the intraocular pressure in normotensive monkeys after topical administration of 3 ug of the compound; format: functional, Cercopithecidae, Eye
Felis catus [2] = assay: Maximum irritation of cat eyes after topical administration of 3 ug of the compound; format: functional
Felis catus [3] = species: Felis catus; assay: Compound concentration which had a contractile effect on iris sphincter muscle of cats; format: functional

Structure (SMILES): CC(C)OC(=O)CCC/C=C\C[C@@H]1[C@@H](/C=C/[C@@H](O)CCc2ccccc2)[C@H](O)C[C@@H]1O
Irritation of eyes (Felis catus [1]): 0.2 arbitrary units
Reduction of IOP (Monkey): 2.9 mmHg

Structure (SMILES): CC(C)OC(=O)CCC/C=C\C[C@@H]1[C@@H](/C=C/[C@H](O)CCc2ccccc2)[C@H](O)C[C@@H]1O
Irritation of eyes (Felis catus [1]): 0 arbitrary units
Reduction of IOP (Monkey): 1.9 mmHg

Structure (SMILES): CCCCC[C@H](O)CC[C@@H]1[C@@H](C/C=C\CCCC(=O)OC(C)C)[C@@H](O)C[C@H]1O
Reduction of IOP (Monkey): 2.5 mmHg
Irritation of eyes (Felis catus [2]): 2.5 arbitrary units

Structure (SMILES): CCCCC[C@@H](O)CC[C@@H]1[C@@H](C/C=C\CCCC(=O)OC(C)C)[C@@H](O)C[C@H]1O
Reduction of IOP (Monkey): 0.7 mmHg
Irritation of eyes (Felis catus [2]): 2.3 arbitrary units

Structure (SMILES): CC(C)OC(=O)CCC/C=C\C[C@@H]1[C@@H](CC[C@H](O)CCc2ccccc2)[C@H](O)C[C@@H]1O
Reduction of IOP (Monkey): 1 mmHg
Irritation of eyes (Felis catus [2]): 0 arbitrary units

EC50 (Felis catus [3]): 710 pM
Structure (SMILES): O=C(O)CCC/C=C\C[C@@H]1[C@@H](CC[C@@H](O)CCc2ccccc2)[C@H](O)C[C@@H]1O [LATANOPROST ACID]

Structure (SMILES): CC(C)OC(=O)CCC/C=C\C[C@@H]1[C@@H](CC[C@@H](O)CCc2ccccc2)[C@H](O)C[C@@H]1O [LATANOPROST]
Reduction of IOP (Monkey): 2.6 mmHg
Irritation of eyes (Felis catus [2]): 0 arbitrary units
